Some test systems named below: SK-MEL-28 melanoma; HCC-2998 colon; CAKI-1 renal; HT29 colon; SNB-19 CNS; HL-60(TB) leukemia; M14 melanoma; OVCAR-4 ovarian; MOLT-4 leukemia.
What all share (assay): NCI anticancer screen, dose series, 48 h

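Each compound was tested at five concentrations against cells in 96-well plates for 48 hours. Abbreviation: GI50, concentration required for 50% inhibition of growth. TGI: total growth inhibition.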 Bounds are passed on as bounds.

As for `Cc1cccc(NC(=O)C(=O)Cc2nc3ccccc3[nH]c2=O)c1C`, the TGI in the assay on SK-MEL-28 melanoma, in the assay on HCC-2998 colon, in the assay with CAKI-1 renal, in the assay with HT29 colon, in the assay on SNB-19 CNS and with HL-60(TB) leukemia was > 100 µM in each case. The TGI in the assay on M14 melanoma and with OVCAR-4 ovarian was > 100 µM throughout.
As for `CC1=C2C(=O)O[C@@H](c3ccoc3)[C@]2(C)CCC1`, the TGI in the assay on SK-MEL-28 melanoma, with HCC-2998 colon, with CAKI-1 renal, with HT29 colon, with SNB-19 CNS and in the assay with MOLT-4 leukemia was > 100 µM throughout. For the same compound, the TGI in the assay on HL-60(TB) leukemia, with M14 melanoma and in the assay on OVCAR-4 ovarian was > 100 µM in each case.
`Cc1ccccc1N(CCC#N)C1=NN(C(=O)CC(=O)Nc2ccccc2)C(c2ccccc2)C1` (centres undefined): the TGI with SK-MEL-28 melanoma, in the assay on HCC-2998 colon, with HT29 colon, with SNB-19 CNS, in the assay on MOLT-4 leukemia and with HL-60(TB) leukemia was > 100 µM in each case. The TGI in the assay on M14 melanoma and in the assay on OVCAR-4 ovarian was > 100 µM each time.
Consider `O=C(O)CN(c1ccccc1)S(=O)(=O)c1ccccc1[N+](=O)[O-]`, for which the TGI with SK-MEL-28 melanoma, in the assay with CAKI-1 renal, in the assay on HT29 colon, in the assay with SNB-19 CNS, in the assay on MOLT-4 leukemia and with HL-60(TB) leukemia was > 100 µM throughout. The TGI in the assay on M14 melanoma and in the assay with OVCAR-4 ovarian was > 100 µM each time.
With `CCCCCCCCCCCCCC1CCC(CC)N1` (centres undefined), the TGI stood at 18.6 µM in the assay on SK-MEL-28 melanoma; 18.7 µM with HCC-2998 colon; 29.6 µM with CAKI-1 renal; 15.1 µM in the assay on HT29 colon; 30.7 µM with SNB-19 CNS; 30.6 µM in the assay with MOLT-4 leukemia. Besides, the figures for the TGI in the assay on HL-60(TB) leukemia, with M14 melanoma and with OVCAR-4 ovarian were 21.2 µM, 31.8 µM and 31.2 µM, respectively.
Take `Cc1ccc2nc3c(C(=O)NCCN(C)C)cccc3nc2c1`: the TGI in the assay with SK-MEL-28 melanoma is 10.9 µM; in the assay on HCC-2998 colon, 32.3 µM; with CAKI-1 renal it was > 31.6 µM; in the assay with HT29 colon, 15.4 µM; in the assay on SNB-19 CNS, 46.3 µM; with MOLT-4 leukemia, 6.29 µM. Further, the TGI in the assay on HL-60(TB) leukemia was > 100 µM; in the assay on M14 melanoma, > 33.7 µM; with OVCAR-4 ovarian it was 15.2 µM.
For the compound `CC1=C(C)CC2(CCCCC2=O)S(=O)C1` (centres undefined), the TGI in the assay with SK-MEL-28 melanoma, in the assay with HCC-2998 colon, in the assay on HT29 colon, with SNB-19 CNS, in the assay with MOLT-4 leukemia and with HL-60(TB) leukemia was > 100 µM each time. Moreover, the TGI in the assay on M14 melanoma and in the assay with OVCAR-4 ovarian was > 100 µM each time.
Regarding `COC(=O)c1cc(Br)c(Br)n1C`, the TGI in the assay with SK-MEL-28 melanoma, in the assay with HCC-2998 colon, with CAKI-1 renal, with HT29 colon, in the assay on SNB-19 CNS and with MOLT-4 leukemia was > 100 µM throughout. The TGI with HL-60(TB) leukemia, with M14 melanoma and with OVCAR-4 ovarian was > 100 µM in each case.
`C=CCCCCCCCCC(=O)NS(=O)(=O)c1ccccc1`: the TGI in the assay with SK-MEL-28 melanoma, with HCC-2998 colon, in the assay on CAKI-1 renal, in the assay with HT29 colon, with SNB-19 CNS and in the assay with MOLT-4 leukemia was > 100 µM each time. For the same compound, the TGI in the assay on HL-60(TB) leukemia, in the assay on M14 melanoma and in the assay with OVCAR-4 ovarian was > 100 µM in each case.
Take `N.N.N.N.N.O=C([O-])c1nn[n-]n1.[Cl-].[Co+3]`: the GI50 with SK-MEL-28 melanoma, in the assay on HCC-2998 colon, in the assay with CAKI-1 renal, in the assay on HT29 colon, with SNB-19 CNS and with MOLT-4 leukemia was > 100 µM each time. Also, the GI50 with HL-60(TB) leukemia, in the assay on M14 melanoma and with OVCAR-4 ovarian was > 100 µM each time. For the same compound, the TGI with SK-MEL-28 melanoma, in the assay with HCC-2998 colon, in the assay with CAKI-1 renal, in the assay with HT29 colon, in the assay on SNB-19 CNS and in the assay with MOLT-4 leukemia was > 100 µM each time. Moreover, the TGI in the assay with HL-60(TB) leukemia, with M14 melanoma and with OVCAR-4 ovarian was > 100 µM each time.
Turning to `NC1=NN(c2ccccc2)C(=O)C1C(=O)CCC(=O)Nc1cccc(C(F)(F)F)c1` (centres undefined), the TGI in the assay with SK-MEL-28 melanoma, in the assay on HCC-2998 colon, in the assay with CAKI-1 renal, with HT29 colon, in the assay on SNB-19 CNS and in the assay with MOLT-4 leukemia was > 100 µM throughout. Moreover, the TGI in the assay on HL-60(TB) leukemia, in the assay with M14 melanoma and in the assay with OVCAR-4 ovarian was > 100 µM in each case.
Take `Cc1noc(C)c1CCCOC1COc2ccccc2OCCOCCOc2ccccc2OC1`: the TGI in the assay with SK-MEL-28 melanoma, with HCC-2998 colon, in the assay with CAKI-1 renal, with HT29 colon, in the assay with SNB-19 CNS and in the assay on HL-60(TB) leukemia was > 100 µM throughout. The TGI with M14 melanoma and in the assay on OVCAR-4 ovarian was > 100 µM in each case.
As for `O=c1cccccc1NCCCNc1cccccc1=O`, the TGI in the assay on CAKI-1 renal, in the assay on HT29 colon, in the assay with SNB-19 CNS, with MOLT-4 leukemia, in the assay on HL-60(TB) leukemia and with M14 melanoma was > 100 µM in each case.
Regarding `Cc1ccc(S(=O)(=O)n2c(-c3ccccc3)c(-c3ccccc3)c3ccccc32)cc1`, the TGI in the assay on SK-MEL-28 melanoma, with HCC-2998 colon, in the assay on HT29 colon, in the assay on SNB-19 CNS, in the assay with MOLT-4 leukemia and with HL-60(TB) leukemia was > 100 µM throughout. Moreover, the TGI in the assay with M14 melanoma and in the assay with OVCAR-4 ovarian was > 100 µM each time.
With `COc1cc(OC(=O)c2c(O)cc(O)c(O)c2C)cc(C)c1C(=O)Oc1cc(C)c(C(=O)O)c(O)c1`, the TGI in the assay on SK-MEL-28 melanoma, in the assay on HCC-2998 colon, in the assay on CAKI-1 renal, in the assay with HT29 colon, in the assay with MOLT-4 leukemia and with HL-60(TB) leukemia was > 100 µM in each case. Besides, the TGI with M14 melanoma and in the assay with OVCAR-4 ovarian was > 100 µM throughout.
